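Exposure lasted 48 hours, with cells grown in 96-well plates and compounds tested at five concentrations. GI50 = concentration required for 50% inhibition of growth. The concentration for full growth arrest is given as TGI.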
Key:
Test in all cases: NCI anticancer screen, dose series, 48 h
A549 NSCLC = system: A549 NSCLC
HL-60(TB) leukemia = system: HL-60(TB) leukemia
K-562 leukemia = system: K-562 leukemia
MCF7 breast = system: MCF7 breast
RXF 393 renal = system: RXF 393 renal
SF-295 CNS = system: SF-295 CNS
TK-10 renal = system: TK-10 renal
UACC-62 melanoma = system: UACC-62 melanoma

Structure (SMILES) | GI50 (A549 NSCLC) [µM] | TGI (A549 NSCLC) [µM] | GI50 (HL-60(TB) leukemia) [µM] | TGI (HL-60(TB) leukemia) [µM] | GI50 (K-562 leukemia) [µM] | TGI (K-562 leukemia) [µM] | GI50 (MCF7 breast) [µM] | TGI (MCF7 breast) [µM] | GI50 (RXF 393 renal) [µM] | TGI (RXF 393 renal) [µM] | GI50 (SF-295 CNS) [µM] | TGI (SF-295 CNS) [µM] | GI50 (TK-10 renal) [µM] | TGI (TK-10 renal) [µM] | GI50 (UACC-62 melanoma) [µM] | TGI (UACC-62 melanoma) [µM]
C(=C\c1nccc2c1[nH]c1ccccc12)/c1ccccc1 | 4.09 | > 100 | 2.07 | 5.55 | 2.25 | 37.2 | 2.15 | 23 | 2.06 | 4.66 | 0.714 | 3.21 | 6.58 | 25.5 | 3.48 | 23.9
Cc1ccc2c(c1)O/C(=C\c1ccc([N+](=O)[O-])o1)C2=O | 2.74 | 8.53 | 1.92 | 5.09 | 0.388 | 2.04 | 0.432 | 2.01 | 1.34 | 2.74 | 2.42 | 7.06 | 1.39 | 2.75 | 1.6 | 3.5
O=C(Nc1ccc(Cl)cc1)c1cc(S(=O)(=O)Nc2nnc(-c3ccccc3)c(-c3ccccc3)n2)c(SCc2ccccc2)cc1Cl | 37.2 | > 62.2 | 23.3 | > 68.3 | 25 | > 100 | 29.6 | > 92 | 0.896 | > 57.7 | 19 | 41.5 | 29.8 | > 64.4 | 18.2 | 39.7
C1=C(c2ccccc2)C(c2ccc(OCCN3CCCCC3)cc2)Oc2ccccc21 (configuration not stated) | 2.19 | 4.76 | 1.73 | 3.76 | 1.53 | 3.38 | 0.441 | 1.88 | 1.61 | 3.11 | 1.72 | 3.29 | 1.69 | 3.4 | 1.92 | 3.68
CO[C@@]12C[C@H]3[C@@H]([C@@H](O)[C@@H](OC(=O)/C=C/c4ccccc4)[C@@]4(O)C(C)(C)CCC[C@]34C)[C@@H](C)C1=CC(=O)O2 | 3.64 | 18.4 | 11.1 | > 100 | 12.5 | > 100 | 8.68 | > 100 | 1.33 | 7.93 | 3.84 | 44.1 | 6.15 | > 100 | 1.55 | 5.62
COC(=O)C1(C2CC/C(C)=C/CC/C(C)=C/CC[C@@]3(C)O[C@@H]3C2)CC1 (some centres not stated) | 29 | > 80.3 | 25.2 | > 83.5 | 29.1 | 99.6 | 51.1 | > 100 | > 38.2 | > 100 | > 60.4 | > 100 | > 59.6 | > 100 | > 100 | > 100
COc1ccc(-c2nnc(N3CCN(C(=O)CN4CCN(c5ccc(Cl)cc5)CC4)CC3)nc2-c2ccc(OC)cc2)cc1 | 27.4 | > 100 | 10.7 | 52.3 | 15.2 | > 100 | 5.82 | > 100 | 18.9 | > 100 | 49.4 | > 100 | 58.5 | > 100 | 31.5 | > 100
C/C1=C\C/C=C(\C)[C@H]2CC(CC/C(C)=C/CC1)[C@](C)(C=O)O2 | > 100 | > 100 | 25.6 | 81.2 | 54.8 | > 100 | 38.2 | 87.8 | > 100 | > 100 | 28.9 | 96.2 | > 100 | > 100 | > 100 | > 100
CC(C)(C)OC(=O)CN1CCc2c(sc3ncnc(N/N=C/c4cccc5ccccc45)c23)C1 | 3.03 | > 33.3 | 2.55 | 19.2 | 1.08 | > 33.3 | 0.923 | 2.85 | 1.56 | 6.93 | 4.41 | 10.2 | 5.34 | > 33.3 | 1.32 | 5.48
COc1ccc(/C=C(/C)[N+](=O)[O-])cc1 |  | 18.2 |  | > 21.8 |  | 16 |  | 2.51 |  | 3.16 |  | 19 |  | 3.64 |  | 3.29
NC(=S)N/N=C\c1nccc2c(N)cccc12 | 0.484 | > 27 | 0.181 | 11.7 | 0.497 | > 100 | 0.218 |  | 0.248 | 17.1 | 0.309 | 3.81 | 0.961 | > 100 | 0.264 | 1.94
Cc1cc(C)c2c(SCc3ccc(Cl)cc3Cl)nc(N)nc2n1 |  | > 100 |  | > 100 |  | 97.1 |  | > 100 |  | > 100 |  | > 100 |  | 47.5 |  | > 100
C/C1=C/C(=O)O[C@@H]2C[C@@H](CC[C@H](C)/C=C\C=C\CC1)O[C@@](OCCc1ccccc1)([C@@H]1CSC(=O)N1)C2 | 0.0754 | > 17.5 | 1.31 | > 17.5 | 0.954 | > 17.5 | 5.37 | > 17.5 | 0.0363 | 0.158 | 0.0383 | > 4.55 | 0.0895 | 0.287 | 0.104 | > 17.5
COc1ccc(/C=C/C(=O)c2cc3c(N)c(C(=O)Nc4ccccc4C)sc3nc2C)cc1 | 0.905 | > 50 | 0.239 | 1.99 | 0.267 | > 50 | 0.24 | > 50 | 0.14 | 0.423 | 0.497 | > 50 | 2.48 | > 50 | 0.275 | > 50
O=c1c2ccccc2nc(-c2ccccc2)n1O |  | > 100 |  | > 100 |  | > 100 |  | > 100 |  | > 100 |  | > 100 |  | > 100 |  | > 100
Oc1c(I)cc(-c2nc3ccccc3s2)cc1CN(Cc1ccccn1)Cc1ccccn1 | 0.427 | > 100 | 0.323 | > 100 | 0.385 | > 100 | 0.34 | 35 | 1.08 | 5.61 | 0.35 | > 100 | 0.46 | > 100 | 0.207 | 0.563
COc1ccc(CC(NC(=O)[C@H](C)NC(=O)CN2CCOCC2)C(=O)N[C@@H](Cc2ccccc2)C(=O)[C@@]2(C)CO2)cc1 (some centres not stated) | 0.461 | > 22.9 | 0.157 |  | 0.268 |  | 0.129 | > 41.6 | 0.237 | 0.658 | 0.185 | 0.587 | 0.47 | 4.93 | 0.182 | 0.479
OCC#Cc1ccccc1C#Cc1ccc(C#Cc2ccccc2C#CCO)s1 | 19.1 | 41 | 43.4 | > 100 | 64 | > 100 | 29.9 | > 100 | 19.6 | 39.6 | 15.1 | 29.2 | 16.7 | 30.6 | 19.5 | 43.4
O=C(NNS(=O)(=O)c1ccc(F)cc1)c1cccnc1Nc1ccc(Cl)cc1Cl | 17.2 | 41 | 25.2 | 62.3 | 20.1 | 83.2 | 31.5 | > 100 | 11.4 | 27.6 | 36.9 | > 100 | 33.8 | > 100 | 46 | > 100
COc1cc2cc(Oc3ccc(NC(=O)Nc4ccc(Cl)c(C(F)(F)F)c4)cc3)c(C)nc2cc1OC |  | 4.16 | 1.13 | 3.12 | 1.11 | 4.81 | 1.08 | 3.88 | 1.33 | 4.21 | 0.899 | 2.91 | 1.32 | 6.19 | 1.24 | 6.01
C[C@]12C3CC[C@@]4(CO)C[C@]3(CCC1[C@](C)(C(=O)O)CC[C@@H]2O)CC4=O (some centres not stated) | > 100 | > 100 | > 100 | > 100 | > 100 | > 100 | > 100 | > 100 | > 100 | > 100 | > 100 | > 100 | > 100 | > 100 | > 100 | > 100
COc1cc(NCc2ccccc2O)c2ncccc2c1 | 49.1 | > 100 | 18.5 | 57 | 17.2 | > 100 | 24.4 | > 100 | 18.5 | 68.8 | 20.6 | 67.4 | 26.5 | > 100 | 11.2 | 53.1
C=C1CC2(CCCC3(CC(=C)C(=O)O3)C2(C)C)OC1=O (configuration not stated) |  | 28.9 |  | 5.65 |  | 13.7 |  | 63.7 |  | 31 |  | 33.8 |  | 6.31 |  | 4.65

Source: PubChem BioAssay (NCI)
